Results reported in publication PMC11968394, “The effect of deuterated PLK1 inhibitor on its safety and efficacy in vivo” (Frontiers in Oncology, 2025).
“And” between values parts separate entries of the source, which are not always exact repeats. Equal values may be shown once.

Tests used:
[1] = test system: PANC-1; assay: Cell viability (CellTiter-Glo, 72 h), PANC-1; format: cell-based, Human; details: PANC-1, 72 hours; for IC50: Homo sapiens; for Bottom: dose-response curve bottom; for Top: dose-response curve top
Protocol: Human pancreatic cancer cell lines (PSN1, PANC-1, Panc 04.03, MIA PaCa-2, BxPC-3, and Capan-1) were cultured in their respective culture media. PSN1 cell lines were maintained in RPMI 1640 + 10%FBS. MIA PaCa-2 cells were cultured in DMEM+10%FBS+5% horse serum. Panc 04.03 cells were grown in RPMI 1640 + 15%FBS+10μg/mL Insulin. PANC-1 cells were maintained in DMEM+10%FBS. BxPC-3 cells were cultured in RPMI 1640 + 10%FBS. Capan-1 cells were grown in IMDM+20%FBS. All cells were incubated at 37°C in a humidified atmosphere containing 5% CO2.
For assays, cells in the logarithmic growth phase were harvested, seeded to different concentrations at 2,000-6,000 cells/well in 96-well plates. Following overnight incubation, test compounds were added at various concentrations and incubated for 72 hours. Cell viability was assessed by the ATP concentration using the CellTiter-Glo reagent (Promega, Madison, WI 53711 USA), and luminescence values were recorded by a Multilabel Reader (PerkinElmer, Waltham, MA, USA).

[2] = molecular target: DYRK2 (Homo sapiens, UniProt Q92630); assay: Kinase assay DYRK2; format: biochemical
Protocol: (§1) Serial dilutions in DMSO were prepared. PLK1 was serially diluted 5-fold from 10 μM, yielding concentrations from 10000 nM to 0.00512 nM. Other targets were serially diluted 3-fold from 10 μM, yielding concentrations from 10000 nM to 0.5 nM. We have used two kinase assays: HTRF assay and ADG-Glo assay.
(§2) For HTRF Assay, 2× ATP/substrate solution and 2× kinase solution were prepared in kinase reaction buffer. Using an Echo 655, 50 nL of each diluted compound was transferred to a 384-well detection plate. The plate was centrifuged at 1000 rpm for 1 minute. 2.5 μL of 2× kinase solution was added to each well. The plate was incubated at 25°C for 10 minutes. 2.5 μL of 2× ATP/substrate solution was added to each well. The plate was centrifuged at 1000 rpm for 1 minute. The plate was incubated at 25°C for 40 minutes. 2× XL665 and antibody detection reagent were prepared in detection buffer. 5 μL of the prepared kinase detection reagent was added to each well. The plate was centrifuged at 1000 rpm for 1 minute. The plate was incubated at 25°C for 1 hour. Fluorescence signals at 620 nm (Cryptate) and 665 nm (XL665) were measured using a multifunction plate reader.
(§3) For ADP-Glo Assay, 2× ATP/substrate solution and 2× kinase solution were prepared in kinase reaction buffer. […] Luminescence signals were measured using a multifunction plate reader.

[3] = molecular target: CK1δ (Homo sapiens, UniProt P48730); assay: Kinase assay CK1δ; format: biochemical
Protocol: as §1, §2, §3

[4] = molecular target: RON (Homo sapiens, UniProt Q04912); assay: Kinase assay RON; format: biochemical
Protocol: as §1, §2, §3

[5] = molecular target: CK1ϵ (Homo sapiens, UniProt P49674); assay: Kinase assay CK1ϵ; format: biochemical
Protocol: as §1, §2, §3

[6] = molecular target: TSSK1 (Homo sapiens, UniProt Q9BXA7); assay: Kinase assay TSSK1; format: biochemical
Protocol: as §1, §2, §3

[7] = molecular target: CLK1 (Homo sapiens, UniProt P49759); assay: Kinase assay CLK1; format: biochemical
Protocol: as §1, §2, §3

[8] = molecular target: CK1α (Homo sapiens, UniProt P48729); assay: Kinase assay CK1α; format: biochemical
Protocol: as §1, §2, §3

[9] = test system: BxPC-3 CDX model; assay: BxPC-3 CDX model; format: in vivo, NOD SCID mouse; details: for Mice died: NOD SCID, 60 mg/kg, 6 mice/group, 10 days
Protocol: These studies were performed at Yikon Medical (Beijing, China). Cancer cell line HCT 116 or BxPC-3 were cultured in 10% FBS RPMI-1640 medium plus penicillin, streptomycin, and glutamine at 37°C and 5% CO2 until reaching confluency. Cells were then prepared for inoculation. 5×10⁷ cells/mL cells in 100 µL were inoculated subcutaneously into the right flank of each female BALB/c nude mouse for HCT 116 cell line or female NOD SCID mouse for BxPC-3 cell line. When tumors reached 100-150 mm³, mice were divided into 4-5 groups (6-7 mice/group). […] Mice were dosed at least 10 days and were monitored for 30 days.
(§4) TGI was calculated as follows.

[10] = test system: PSN-1 CDX model; assay: PSN-1 CDX model, tumor growth inhibition after 4-day dosing; format: in vivo, M-NSG mice; details: for TGI / Tumor volume Day 4: 4-day dosing; for Tumor volume Day 0: baseline
Protocol: For in vivo PK/PD studies, a PSN1 tumor model was established in female M-NSG (NOD.Cg-Prkdc^scidIl2rg^em1Smoc ) mice, which are severely immunodeficient mice lacking the interleukin 2 receptor gamma chain on a NOD.Cg-Prkdc^scid background, at Shanghai Model Organisms (Shanghai, China). Briefly, 5 × 10^6 PSN1 cells were inoculated subcutaneously into each M-NSG mouse. Once the tumors reached approximately 500 mm³, compounds were administered orally at various dosages. For PK studies, blood samples were collected at 0, 0.25, 0.5, 1, 2, 6, and 24 hours post-dose. The sera from blood were then obtained and stored at -70°C. For PD studies, tumors were harvested 2 hours after dosing and stored at -70°C.The serum and tumor samples were then transported to PRECEDO (Hefei, Anhui, China) for further PK/PD studies.
as §4

CK1δ, sequence (P48730 whole entry): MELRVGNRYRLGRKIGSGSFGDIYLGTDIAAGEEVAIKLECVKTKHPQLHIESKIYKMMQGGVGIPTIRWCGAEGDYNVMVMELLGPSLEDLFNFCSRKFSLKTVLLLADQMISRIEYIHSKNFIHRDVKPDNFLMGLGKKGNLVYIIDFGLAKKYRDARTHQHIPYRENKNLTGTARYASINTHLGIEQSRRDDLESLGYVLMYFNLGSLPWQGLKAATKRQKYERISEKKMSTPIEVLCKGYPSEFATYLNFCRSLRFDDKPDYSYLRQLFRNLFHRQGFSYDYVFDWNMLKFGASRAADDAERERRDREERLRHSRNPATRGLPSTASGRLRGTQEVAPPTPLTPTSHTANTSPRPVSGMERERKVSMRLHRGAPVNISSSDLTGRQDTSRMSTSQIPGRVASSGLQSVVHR
DYRK2, sequence (Q92630 whole entry): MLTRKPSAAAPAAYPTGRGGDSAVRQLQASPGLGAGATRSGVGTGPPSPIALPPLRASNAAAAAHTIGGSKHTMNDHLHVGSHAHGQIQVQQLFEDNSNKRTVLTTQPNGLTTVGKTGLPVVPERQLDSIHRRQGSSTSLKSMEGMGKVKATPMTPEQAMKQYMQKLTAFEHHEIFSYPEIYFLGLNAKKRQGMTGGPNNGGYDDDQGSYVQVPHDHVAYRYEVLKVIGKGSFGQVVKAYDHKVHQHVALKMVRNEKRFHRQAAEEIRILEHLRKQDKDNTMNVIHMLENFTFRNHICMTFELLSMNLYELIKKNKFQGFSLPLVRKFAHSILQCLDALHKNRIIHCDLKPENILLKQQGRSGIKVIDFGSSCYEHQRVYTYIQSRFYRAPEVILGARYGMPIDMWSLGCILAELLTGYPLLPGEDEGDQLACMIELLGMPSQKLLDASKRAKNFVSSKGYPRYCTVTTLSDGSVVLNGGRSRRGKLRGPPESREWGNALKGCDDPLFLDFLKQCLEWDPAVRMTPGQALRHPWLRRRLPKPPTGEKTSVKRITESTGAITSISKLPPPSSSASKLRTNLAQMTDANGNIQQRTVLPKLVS
CK1ϵ, sequence (P49674 whole entry): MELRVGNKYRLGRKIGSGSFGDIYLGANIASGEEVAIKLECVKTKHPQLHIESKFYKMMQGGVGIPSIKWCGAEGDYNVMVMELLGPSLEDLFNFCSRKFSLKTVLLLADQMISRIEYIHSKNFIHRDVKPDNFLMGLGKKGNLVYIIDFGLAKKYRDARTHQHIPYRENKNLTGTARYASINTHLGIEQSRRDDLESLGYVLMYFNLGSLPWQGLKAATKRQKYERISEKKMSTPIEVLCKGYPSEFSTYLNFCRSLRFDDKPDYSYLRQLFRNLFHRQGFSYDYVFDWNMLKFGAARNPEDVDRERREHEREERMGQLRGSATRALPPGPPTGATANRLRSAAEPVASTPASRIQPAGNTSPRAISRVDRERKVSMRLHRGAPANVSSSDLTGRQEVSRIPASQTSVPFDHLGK
CK1α, sequence (P48729 whole entry): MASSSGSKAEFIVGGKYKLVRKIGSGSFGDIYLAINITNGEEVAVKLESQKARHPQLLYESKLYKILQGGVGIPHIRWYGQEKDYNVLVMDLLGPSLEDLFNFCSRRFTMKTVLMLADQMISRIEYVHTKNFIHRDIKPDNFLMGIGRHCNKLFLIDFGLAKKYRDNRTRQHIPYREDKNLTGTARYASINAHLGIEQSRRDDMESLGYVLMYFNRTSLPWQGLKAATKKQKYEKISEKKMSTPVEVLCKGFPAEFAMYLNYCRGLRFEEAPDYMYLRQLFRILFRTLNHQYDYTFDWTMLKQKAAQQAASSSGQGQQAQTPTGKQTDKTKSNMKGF
CLK1, sequence (P49759 whole entry): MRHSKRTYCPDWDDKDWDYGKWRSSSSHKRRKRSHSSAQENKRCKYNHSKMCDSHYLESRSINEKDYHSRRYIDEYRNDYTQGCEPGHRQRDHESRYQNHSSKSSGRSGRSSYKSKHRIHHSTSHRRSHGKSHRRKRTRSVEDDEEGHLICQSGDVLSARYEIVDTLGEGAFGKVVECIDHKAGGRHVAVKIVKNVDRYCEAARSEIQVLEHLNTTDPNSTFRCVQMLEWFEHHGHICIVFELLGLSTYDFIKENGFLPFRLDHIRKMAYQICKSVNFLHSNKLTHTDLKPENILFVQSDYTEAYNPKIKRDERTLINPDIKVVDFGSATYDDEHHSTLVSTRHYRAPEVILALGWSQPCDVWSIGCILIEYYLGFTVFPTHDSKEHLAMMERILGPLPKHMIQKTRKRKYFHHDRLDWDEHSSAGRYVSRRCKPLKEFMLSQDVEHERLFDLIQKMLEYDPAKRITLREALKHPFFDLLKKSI
TSSK1, sequence (Q9BXA7 whole entry, species assumed): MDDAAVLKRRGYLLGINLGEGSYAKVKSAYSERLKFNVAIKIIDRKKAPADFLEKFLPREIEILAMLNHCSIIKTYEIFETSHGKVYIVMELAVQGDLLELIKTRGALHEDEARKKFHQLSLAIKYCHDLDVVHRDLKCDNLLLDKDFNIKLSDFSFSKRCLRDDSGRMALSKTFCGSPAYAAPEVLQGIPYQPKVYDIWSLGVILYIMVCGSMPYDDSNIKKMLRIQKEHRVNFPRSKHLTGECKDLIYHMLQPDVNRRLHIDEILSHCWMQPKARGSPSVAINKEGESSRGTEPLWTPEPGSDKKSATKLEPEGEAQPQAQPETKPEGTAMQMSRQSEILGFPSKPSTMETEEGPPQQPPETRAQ
RON, sequence (Q04912 25-1400, species assumed): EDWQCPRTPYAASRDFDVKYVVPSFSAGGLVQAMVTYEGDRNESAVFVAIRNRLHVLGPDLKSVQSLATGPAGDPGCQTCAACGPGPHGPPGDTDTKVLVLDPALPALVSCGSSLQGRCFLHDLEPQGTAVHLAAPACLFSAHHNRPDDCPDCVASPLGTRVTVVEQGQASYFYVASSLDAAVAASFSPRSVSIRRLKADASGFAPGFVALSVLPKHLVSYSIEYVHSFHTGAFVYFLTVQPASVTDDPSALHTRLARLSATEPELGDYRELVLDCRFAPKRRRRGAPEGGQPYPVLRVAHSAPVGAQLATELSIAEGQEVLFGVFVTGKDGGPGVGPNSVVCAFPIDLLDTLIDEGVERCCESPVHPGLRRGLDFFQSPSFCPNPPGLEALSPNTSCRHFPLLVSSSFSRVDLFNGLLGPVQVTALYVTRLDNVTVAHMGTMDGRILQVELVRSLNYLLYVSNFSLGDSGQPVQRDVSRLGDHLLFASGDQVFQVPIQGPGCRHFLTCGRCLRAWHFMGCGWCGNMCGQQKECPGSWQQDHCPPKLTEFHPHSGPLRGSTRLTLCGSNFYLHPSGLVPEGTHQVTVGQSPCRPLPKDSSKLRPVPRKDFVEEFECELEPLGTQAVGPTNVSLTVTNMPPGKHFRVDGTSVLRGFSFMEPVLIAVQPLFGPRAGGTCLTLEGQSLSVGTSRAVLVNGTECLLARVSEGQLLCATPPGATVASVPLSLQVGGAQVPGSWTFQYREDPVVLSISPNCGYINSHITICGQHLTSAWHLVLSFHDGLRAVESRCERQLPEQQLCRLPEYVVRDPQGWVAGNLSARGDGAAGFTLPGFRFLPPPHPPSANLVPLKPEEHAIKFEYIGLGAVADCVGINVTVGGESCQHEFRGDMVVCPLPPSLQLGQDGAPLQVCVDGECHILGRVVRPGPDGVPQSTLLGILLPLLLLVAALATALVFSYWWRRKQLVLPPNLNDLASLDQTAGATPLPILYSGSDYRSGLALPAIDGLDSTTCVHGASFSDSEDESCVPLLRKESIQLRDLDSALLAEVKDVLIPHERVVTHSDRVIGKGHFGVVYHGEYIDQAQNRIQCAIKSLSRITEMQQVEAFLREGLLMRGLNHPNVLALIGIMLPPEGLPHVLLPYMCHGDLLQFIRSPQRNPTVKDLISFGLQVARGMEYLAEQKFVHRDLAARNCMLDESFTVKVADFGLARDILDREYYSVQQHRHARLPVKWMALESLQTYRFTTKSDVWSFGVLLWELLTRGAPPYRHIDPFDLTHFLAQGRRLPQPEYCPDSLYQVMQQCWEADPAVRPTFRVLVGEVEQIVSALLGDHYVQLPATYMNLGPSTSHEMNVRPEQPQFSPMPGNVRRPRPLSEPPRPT

CN1CCN(c2ccc(OC(F)(F)F)c(Nc3ncc4c(n3)-c3c(c(C(N)=O)nn3CCO)CC4)c2)CC1 [NMS-P937]
IC50 [1]: 142 nM | Bottom [1]: -2.5 | Top [1]: 41.1 | IC50 [2]: 1150 nM | IC50 [3]: 59.3 nM | IC50 [4]: 1090 nM | IC50 [5]: 156 nM | IC50 [6]: 77.8 nM | IC50 [7]: 235 nM | IC50 [8]: 184 nM | Body weight ([9]; NOD SCID mice): dramatically reduced body weight | Mice died [9]: two mice died | Mice died ([9]; listed as NMP-P937, 60 mg/kg): 2/6 | TGI ([10]; 15 mg/kg): 51.3% | Tumor volume Day 4 ([10]; 15 mg/kg): 166.43 ± 5.79 mm^3 | Tumor volume Day 0 ([10]; 15 mg/kg): 119.66 ± 1.67 mm^3 | TGI ([10]; 30 mg/kg): 68.1% | Tumor volume Day 4 ([10]; 30 mg/kg): 149.94 ± 4.21 mm^3 | Tumor volume Day 0 ([10]; 30 mg/kg): 119.38 ± 2.09 mm^3 | TGI ([10]; 60 mg/kg): 81.2% | Tumor volume Day 4 ([10]; 60 mg/kg): 137.49 ± 5.16 mm^3 | Tumor volume Day 0 ([10]; 60 mg/kg): 119.42 ± 2.14 mm^3

[2H]C1([2H])N(C)C([2H])([2H])C([2H])([2H])N(c2ccc(OC(F)(F)F)c(Nc3ncc4c(n3)-c3c(c(C(N)=O)nn3CCO)CC4)c2)C1([2H])[2H] [PR00012]
IC50 [1]: 237 nM | Bottom [1]: 9.8 | Top [1]: 53.1 | IC50 [2]: 81.4 nM | IC50 [3]: 51.8 nM | IC50 [4]: 905 nM | IC50 [5]: 156 nM | IC50 [6]: 53.2 nM | IC50 [7]: 196 nM | IC50 [8]: 182 nM | Tumor growth ([9]; NOD SCID mice): tumor growth inhibition in a dose-dependent manner | Mice died [9]: one mouse died and 1/6 | TGI ([10]; 15 mg/kg): 55.5% | Tumor volume Day 4 ([10]; 15 mg/kg): 162.12 ± 4.11 mm^3 | Tumor volume Day 0 ([10]; 15 mg/kg): 119.44 ± 1.78 mm^3 | TGI ([10]; 30 mg/kg): 75.0% | Tumor volume Day 4 ([10]; 30 mg/kg): 143.49 ± 5.64 mm^3 | Tumor volume Day 0 ([10]; 30 mg/kg): 119.48 ± 1.95 mm^3 | TGI ([10]; 60 mg/kg): 91.2% | Tumor volume Day 4 ([10]; 60 mg/kg): 127.93 ± 1.60 mm^3 | Tumor volume Day 0 ([10]; 60 mg/kg): 119.48 ± 1.72 mm^3
